Results: PMC2376372, “3-Bromophenyl 6-acetoxymethyl-2-oxo-2H-1-benzopyran-3-carboxylate inhibits cancer cell invasion in vitro and tumour growth in vivo” (British Journal of Cancer, 2003)
Like-named read-outs stand apart in the source and are kept apart here. Each block holds one compound with its values, some of them ahead of it.

What was measured:
[1] = target: T1, HLE (Homo sapiens, UniProt P08246); conditions: cited from earlier work; for ki/KI or kobs/[I], HLE: pH 8.0, 25°C
T1 construct: purchased Elastase Products Co
T1 sequence (P08246 30-267): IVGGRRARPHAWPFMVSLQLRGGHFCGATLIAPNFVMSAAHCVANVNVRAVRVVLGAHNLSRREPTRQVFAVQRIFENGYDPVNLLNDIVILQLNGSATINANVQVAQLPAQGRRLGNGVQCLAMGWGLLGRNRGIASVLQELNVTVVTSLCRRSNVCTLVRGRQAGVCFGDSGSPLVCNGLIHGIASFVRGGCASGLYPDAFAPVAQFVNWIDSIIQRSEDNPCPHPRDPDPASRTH

[2] = target: T2, Plasmin (Homo sapiens, UniProt P00747); assay: Inactivation of plasmin (preincubation method); type: biochemical; conditions: pH 7.5, read-out: ki/KI or kobs/[I], Plasmin
T2 construct: No; X′; α-CT; HLE; LMW-uPA; Plasmin; purchased Biogenic
Protocol: (§1) Bovine α-CT and LMW-uPA (MW=33 000 Da) were purchased from Sigma, HMW-uPA (MW=54 000 Da) from Choay, trypsin (TRY) and THR from Boehringer-Indelheim (Germany), and MMP-2 and MMP-9 from Calbiochem. Human leucocyte elastase and PM were from Elastase Products Co. and Biogenic, respectively. Except for THR, HMW-uPA, MMP-2 and MMP-9, enzyme concentrations were determined by active-site titrations using the appropriate titrant ([Bender et al, 1966]; [Chase and Shaw, 1970]; [Powers and Gupton, 1977]). […]
(§2) The kinetic parameters for the inhibition were determined either by the preincubation method for LMW-uPA and PM (small aliquots of the reaction mixture were withdrawn at intervals of time and the remaining activity determined), or by the progress curve method (HLE) when the inhibition was too fast to be measured accurately using the preincubation method. […]
(§3) At low inhibitor concentrations, the ratio ki/KI was obtained as kobs/[I]0. […] In the progress curve method, the substrate competes with the inhibitor and the kinetic parameters are determined as previously described ([Doucet et al, 1999]). […]

[3] = target: T3, LMW-uPA (Homo sapiens, UniProt P00749); assay: Inactivation of LMW-uPA (preincubation method); type: biochemical
T3 construct: Bovine α-CT and LMW-uPA (MW=33 000 Da) were purchased from Sigma; purchased Sigma
Protocol: as §1, §2, §3

[4] = system: HT1080 fibrosarcoma cells; assay: Chemoinvasion assay, type IV collagen-coated Transwell inserts (Boyden chamber); type: cell-based, human; conditions: type IV collagen-coated filters; for inhibition at 10 µM / inhibition at 1 µM: Homo sapiens, HT-1080, 48 h, read-out: inhibition of HT1080 cell invasion (chemoinvasion); for inhibition at 1 µM / inhibition of HT1080 cell invasion (chemoinvasion): 1 μM; for inhibition of HT1080 cell invasion (chemoinvasion): 48 h
Protocol: Plates (24-well) (Falcon, Becton-Dickinson, USA) and 6.5 mm polycarbonate filters (8 μm pore size) of Transwell cell culture chamber inserts (Costar, Netherlands) were coated with 100 μl of type IV collagen purified from human placenta diluted at 200 μg ml^−1 in phosphate-buffered saline (PBS). Coats were left to air-dry overnight in a laminar flow hood under UV light. Uniformity of the coating was assessed by Coomassie blue staining. Before use, coated plates and inserts were washed twice with water and incubated for at least 1 h in serum-free DMEM at 37°C ([Maquoi et al, 1999]).
(§4) HT1080 cells exponentially growing in T-75 flasks (Nunc, Costar, Netherlands) were collected by trypsin–ethylenediaminetetraacetic acid treatment, washed with serum-containing medium and allowed to recover from trypsinisation for at least 30 min at 37°C. Cells were then washed twice in serum-free DMEM and diluted in the same medium supplemented with 0.1% bovine serum albumin (BSA, fraction V, Sigma, USA) to a cell density of 6 × 10^5 cells ml^−1.
(§5) The influence of coumarin derivatives (0.1, 1 and 10 μM) on HT1080 cell invasion and migration was assayed using Transwell cell culture inserts (Costar) and compared to the reference compound GI 129471 (1 μM), an MMP inhibitor ([Wheeler et al, 1998]).
(§6) For chemoinvasion assays, type IV collagen-coated membranes (see above) were used, whereas uncoated membranes were employed for chemotaxis assays. Lower wells of chambers were filled with DMEM supplemented with 20% FCS and 1% BSA (fraction V, ICN) as chemoattractant, in the presence or absence of coumarin derivative (final concentration 0.1, 1 and 10 μM) or GI 129471 (final concentration 1 μM). Cells (6 × 10^4) suspended in DMEM supplemented with 0.1% BSA (fraction V, ICN) were seeded in the upper wells. Chambers were subsequently incubated for 48 and 4 h for chemoinvasion and chemotaxis assays, respectively, in a humid atmosphere at 37°C (in order to maintain a chemotactic gradient, media from both lower and upper wells were renewed after 24 h). After incubation, filters were removed from the chambers, fixed in 4% paraformaldehyde for 15 min (4°C), permeabilised for 10 min in methanol (−20°C) and stained with Giemsa (4%) for 15 min. The upper surface of the filters was scrapped with a cotton swab and cells having reached the lower surface of the filters were visually counted using a light microscope (Vanox AH3, Olympus, Hamburg, Germany) at 20-fold magnification. Each assay was performed in triplicate. Results were expressed as percentages (±s.d.) of the migration of control cells.

[5] = target: α-CT; conditions: cited from earlier work; for ki/KI or kobs/[I], α-CT: pH 7.5, 25°C
[6] = system: HT1080 fibrosarcoma cells; assay: Chemotaxis assay, uncoated Transwell inserts; type: cell-based, human; conditions: 1 μM, 4 h, uncoated filters
Protocol: as §4, §5, §6

T2 sequence (P00747 581-810 limits assumed, species assumed): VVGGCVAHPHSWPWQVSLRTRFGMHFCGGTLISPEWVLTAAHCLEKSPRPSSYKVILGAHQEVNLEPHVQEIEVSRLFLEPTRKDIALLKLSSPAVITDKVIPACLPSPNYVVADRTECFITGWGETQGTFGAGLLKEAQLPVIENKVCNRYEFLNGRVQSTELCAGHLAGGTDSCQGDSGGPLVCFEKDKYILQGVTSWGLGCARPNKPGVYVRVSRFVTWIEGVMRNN
T2 sequence (P00747 97-580 partner limits assumed, species assumed): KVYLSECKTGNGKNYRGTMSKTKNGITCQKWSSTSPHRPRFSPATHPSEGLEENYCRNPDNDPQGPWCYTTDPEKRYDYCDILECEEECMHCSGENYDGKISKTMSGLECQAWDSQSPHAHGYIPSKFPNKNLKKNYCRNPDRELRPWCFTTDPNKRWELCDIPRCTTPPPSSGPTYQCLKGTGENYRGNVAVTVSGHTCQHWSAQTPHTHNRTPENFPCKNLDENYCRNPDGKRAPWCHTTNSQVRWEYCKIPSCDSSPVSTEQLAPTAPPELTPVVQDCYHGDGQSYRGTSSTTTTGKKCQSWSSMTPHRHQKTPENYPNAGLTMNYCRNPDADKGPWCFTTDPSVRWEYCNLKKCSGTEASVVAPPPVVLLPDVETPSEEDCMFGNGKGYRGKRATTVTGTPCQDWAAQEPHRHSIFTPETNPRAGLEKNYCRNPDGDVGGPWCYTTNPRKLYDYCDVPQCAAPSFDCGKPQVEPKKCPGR

SMILES: O=C(Oc1cccc(Cl)c1)c1cc2cc(CCl)ccc2oc1=O [compound 3, 3-chlorophenyl 6-chloromethyl-2-oxo-2H-1-benzopyran-3-carboxylate]
ki/KI or kobs/[I], HLE ([1]; ref Pochet et al (1996)): 630^b M^−1 s^−1
mode of inhibition of HLE ([1]; ref Pochet et al, 1996, 2000): transiently inactivated
kinact/KI [2]: 600 M⁻¹ s⁻¹
kinact/KI ([3]; pH 7.5, read-out: ki/KI or kobs/[I], LMW-uPA): 336 M⁻¹ s⁻¹
reactivation of inhibited LMW-uPA ([3]; spontaneously after 18 h incubation or after treatment with NH2OH (pH 7.5, 25°C)): No reactivation
inhibition at 10 µM [4]: 30%
ki/KI or kobs/[I], α-CT ([5]; ref Pochet et al (1996)): 762700^b M^−1 s^−1
mode of inhibition of α-CT ([5]; ref Pochet et al, 1996, 2000): suicide substrate leading to enzyme irreversible inhibition

melting point: 170 to 172 °C
SMILES: CC(=O)OCc1ccc2oc(=O)c(C(=O)Oc3cccc(F)c3)cc2c1 [compound 6]
inhibition at 1 µM [4]: 80%

melting point: 169 to 170 °C
SMILES: CC(=O)OCc1ccc2oc(=O)c(C(=O)Oc3cccc(I)c3)cc2c1 [compound 8]
inhibition of HT1080 cell invasion (chemoinvasion) [4]: quite similar to that observed with the reference compound

SMILES: CC(=O)OCc1ccc2oc(=O)c(C(=O)Oc3ccccc3)cc2c1 [compound 5]
inhibition at 1 µM [4]: 30%
inhibition at 10 µM [4]: 50 to 60%

SMILES: O=C(Oc1cccc(Cl)c1)c1cc2ccccc2oc1=O [compound 1]
ki/KI or kobs/[I], HLE ([1]; ref Pochet et al (2000)): 610^a M^−1 s^−1
inhibition at 1 µM [4]: 50%
inhibition at 10 µM [4]: 65%
ki/KI or kobs/[I], α-CT ([5]; ref Pochet et al (2000)): <500^a M^−1 s^−1

SMILES: Cc1ccc2oc(=O)c(C(=O)Oc3cccc(Cl)c3)cc2c1 [compound 2]
ki/KI or kobs/[I], HLE ([1]; ref Pochet et al (2000)): 1100^a M^−1 s^−1
inhibition at 1 µM [4]: 50%
inhibition at 10 µM [4]: 70%
ki/KI or kobs/[I], α-CT ([5]; ref Pochet et al (2000)): 9400^a M^−1 s^−1

SMILES: CNC(=O)[C@H](Cc1ccccc1)NC(=O)[C@H](CC(C)C)[C@H](CSc1ccccc1)C(=O)NO [GI 129471, reference compound]
chemotaxis inhibition [6]: 30%
chemotaxis inhibition ([6]; listed as reference compound): 20–30%
inhibition of HT1080 cell invasion (chemoinvasion) [4]: 60%
